The term EC50 denotes the concentration at which the effect is half-maximal.

Where two headings read alike, the source gives them in different places.

Format in all cases: binding
Assay [1] concerns the target T1, FBW7^ARG+pCycE (Homo sapiens, UniProt Q969H0, R505L).
T1 construct: GST (TEV site and flexible linker) (N, cleaved yes); made in house; host or cells: SF9 insect cells (baculovirus)
The experiment in a line: FBW7^ARG-cyclin E agonist ALPHAscreen (primary PRUN, confirmation CRUN1, dose-response DRUN). The settings on record: for EC50 / Emax: DRUN dose-response; for Emax: relative to WT-FBW7+pCycE, read-out: FBW7 ACT Averaged Max % Response. The essentials: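 ALPHAscreen agonist assay: His-tagged FBW7 R505L on Ni-chelate acceptor beads (25 nM FBW7, 25 nM biotinylated phospho-cyclin E peptide, 10 µg/ml beads), streptavidin donor beads, ALPHA signal read. Primary and confirmation runs at 26.1 μM; dose-response as 10-point 3-fold series to ~87 μM, in triplicate; activation relative to WT-FBW7+pCycE.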
For orientation: Alpha assays give light when donor and acceptor beads are brought close together.

Assay [2] concerns the target T2, FBW7^ARG (RLFBW7) alone (Homo sapiens, UniProt Q969H0, R505L).
T2 construct: GST (TEV site and flexible linker) (N, cleaved yes); made in house; host or cells: SF9 insect cells (baculovirus)
The experiment in a line: Counterscreen 1 ALPHAscreen with FBW7^ARG alone (CSRUN1/DCSRUN1). The note with it: dose-response counterscreen; for Emax: read-out: RLFBW7 ACT DCSRUN1 Averaged Max % Response. The essentials: (§1)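 ALPHAscreen counterscreens, read on ENVISION, omitting either FBW7^ARG or the phosphorylated cyclin E peptide to flag general ALPHAscreen agonists. Compounds tested in triplicate as 10-point 3-fold dilutions up to approximately 87 μM. Activation expressed relative to WT-FBW7+pCycE, with 10% set as positive.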
A general note: A counterscreen serves to expose hits that act by an unwanted route or on another target.

The subject of assay [3] is pCycE alone. The experiment in a line: Counterscreen 2 ALPHAscreen with cyclin E phosphopeptide alone (CSRUN2/DCSRUN2). The note with it: for CyCEP ACT DCSRUN2 Averaged Max % Response: activation relative to WT-FBW7+pCycE, averaged maximum; for EC50: dose-response, triplicate, 10 point 3-fold dilutional series, read-out: CyCEP ACT DCSRUN2 Final EC50. The method, boiled down:
as §1

The mark [4] stands for this setting: raw curve fit, read-out: FBW7 ACT EC50 Curve Fit Raw, Molar.
[5] abbreviates: triplicate, 10 point 3-fold dilution, max approx. 87 μM, read-out: FBW7 ACT Final EC50, Molar.
Setting [6] is: confirmation assay, triplicate, single concentration 26.1 μM, read-out: FBW7 ACT CRUN1 Avg % Response and Stdev.
The mark [7] stands for this setting: primary screen, 1536-well, 26.1 μM, FBW7^ARG + pCycE degron peptide, high control wt-FBW7+pCycE, read-out: FBW7 ACT PRUN % Response.
The mark [8] stands for this setting: raw curve fit, read-out: RLFBW7 ACT DCSRUN1 EC50 Curve Fit Raw.
[9] abbreviates: read-out: RLFBW7 ACT DCSRUN1 Final EC50.

T1 sequence (Q969H0 64-707 R505L): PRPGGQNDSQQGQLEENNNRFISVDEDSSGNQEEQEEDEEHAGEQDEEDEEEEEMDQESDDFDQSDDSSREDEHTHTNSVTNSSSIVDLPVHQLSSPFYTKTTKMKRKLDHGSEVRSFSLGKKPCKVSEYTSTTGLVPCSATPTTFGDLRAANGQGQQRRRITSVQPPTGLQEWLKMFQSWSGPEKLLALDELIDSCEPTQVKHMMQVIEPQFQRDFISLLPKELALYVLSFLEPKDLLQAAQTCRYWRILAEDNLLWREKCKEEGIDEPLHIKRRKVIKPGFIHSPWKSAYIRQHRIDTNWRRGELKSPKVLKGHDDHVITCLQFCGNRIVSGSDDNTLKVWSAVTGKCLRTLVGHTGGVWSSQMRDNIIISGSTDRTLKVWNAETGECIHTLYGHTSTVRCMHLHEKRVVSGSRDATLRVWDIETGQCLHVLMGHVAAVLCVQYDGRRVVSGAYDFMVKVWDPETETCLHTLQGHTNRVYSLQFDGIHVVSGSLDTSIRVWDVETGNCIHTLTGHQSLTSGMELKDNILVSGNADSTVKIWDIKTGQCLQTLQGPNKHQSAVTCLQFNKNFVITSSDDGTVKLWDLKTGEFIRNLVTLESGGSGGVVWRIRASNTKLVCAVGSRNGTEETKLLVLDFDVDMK
T1 sequence (P63208 2-163 partner): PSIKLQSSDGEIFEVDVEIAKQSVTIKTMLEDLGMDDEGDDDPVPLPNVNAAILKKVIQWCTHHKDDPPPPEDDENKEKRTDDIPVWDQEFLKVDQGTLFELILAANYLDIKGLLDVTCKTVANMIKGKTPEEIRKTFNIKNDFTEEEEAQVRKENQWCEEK
T2 sequence (Q969H0 64-707 R505L): as the sequence (Q969H0 64-707 R505L) above
T2 sequence (P63208 2-163 partner): as the sequence (P63208 2-163 partner) above

In the case of `CCN(CC)c1ccc2c(c1)OC(N)=C(C#N)C2c1ccccc1` (centres unmarked) [SR-01000320053-1], the EC50 in assay [1] (setting [4]) is 31.4 µM; in assay [1] (setting [5]), over 65.3 µM; in assay [2] (setting [8]), 75.4 µM; in assay [2] (setting [9]), over 65.3 µM; in assay [3] it was over 65.3 µM. The Emax in assay [1] was 13.7%; in assay [2], 6.24%. The activation at 26.1 µM came out at 2.14 ± 0.69% in assay [1] (setting [6]) and 3.43% in assay [1] (setting [7]). Besides, the “CyCEP ACT DCSRUN2 Averaged Max % Response” value in assay [3] turned out to be 0.22%.

With `COc1ccccc1-c1ccc(=O)n(CC(=O)Nc2ccc(C(=O)N3CCCC3)cc2)n1` [SR-01000332536-1], the EC50 in assay [1] (setting [4]) was 19.1 µM; in assay [1] (setting [5]), over 65.3 µM; in assay [2] (setting [8]), 6.3 µM; in assay [2] (setting [9]), over 65.3 µM; in assay [3], over 65.3 µM. Besides, the Emax in assay [1] was 18%; in assay [2], 0.2%. Also, the activation at 26.1 µM in assay [1] (setting [6]) was 4.43 ± 0.25%; in assay [1] (setting [7]), 4.09%. In assay [3], the “CyCEP ACT DCSRUN2 Averaged Max % Response” value was 0.12%.

For `CCC(c1nnnn1CCC(C)C)N1CCN(C(=O)c2ccco2)CC1` (centres unmarked) [SR-01000340422-1], the EC50 in assay [1] (setting [4]) is 24 µM; in assay [1] (setting [5]), over 65.3 µM; in assay [2] (setting [8]) it was 2.3 µM; in assay [2] (setting [9]), over 65.3 µM; in assay [3], over 65.3 µM. The Emax is 6.45% in assay [1] and 0.87% in assay [2]. The figures for the activation at 26.1 µM in assay [1] (setting [6]) and in assay [1] (setting [7]) were 2.97 ± 0.23% and 2.16%, respectively. Further, in assay [3], the “CyCEP ACT DCSRUN2 Averaged Max % Response” value is on record as 0.18%.

Turning to `Cc1ccc2nc(SCC(=O)Nc3ncc(C)s3)c(C#N)cc2c1` [SR-01000340506-1], the EC50 is 14.9 µM in assay [1] (setting [4]); over 65.3 µM in assay [1] (setting [5]); 16.2 µM in assay [2] (setting [8]); over 65.3 µM in assay [2] (setting [9]); over 65.3 µM in assay [3]. Also, the results for the Emax in assay [1] and in assay [2] were 10.7% and 35.6%, respectively. The activation at 26.1 µM stood at 3.87 ± 0.19% in assay [1] (setting [6]) and 3.77% in assay [1] (setting [7]). Further, the “CyCEP ACT DCSRUN2 Averaged Max % Response” value in assay [3] is 0.24%.

Regarding `CCSc1nnc(C2CCN(CC(=O)Nc3cccc4ccccc34)CC2)n1C` [SR-01000349710-1], the EC50 in assay [1] (setting [4]) was 18 µM; in assay [1] (setting [5]) it was over 65.3 µM; in assay [2] (setting [8]) it was 47.6 µM; in assay [2] (setting [9]), over 65.3 µM; in assay [3] it was over 65.3 µM. Further, the Emax is 22.9% in assay [1] and 0.67% in assay [2]. Also, the results for the activation at 26.1 µM in assay [1] (setting [6]) and in assay [1] (setting [7]) were 7.92 ± 0.35% and 2.77%, respectively. Moreover, the “CyCEP ACT DCSRUN2 Averaged Max % Response” value in assay [3] is on record as 0.22%.

In the case of `O=c1c2cnn(-c3ccccc3)c2nnn1Cc1cccnc1` [SR-01000355082-1], the EC50 in assay [1] (setting [4]) is 0.009 µM; in assay [1] (setting [5]), over 65.3 µM; in assay [2] (setting [8]) it was 11.9 µM; in assay [2] (setting [9]), over 65.3 µM; in assay [3], over 65.3 µM. Also, the Emax amounted to 6.4% in assay [1] and 2.7% in assay [2]. In addition, the activation at 26.1 µM in assay [1] (setting [6]) came to 2.54 ± 0.42%; in assay [1] (setting [7]), 1.95%. Besides, the “CyCEP ACT DCSRUN2 Averaged Max % Response” value in assay [3] is reported as 0.12%.

`COc1cccc(/C=N/c2ccc3[nH]ncc3c2)c1O` [SR-01000359514-1]: the EC50 was 21.1 µM in assay [1] (setting [4]); over 65.3 µM in assay [1] (setting [5]); 23.7 µM in assay [2] (setting [8]); over 65.3 µM in assay [2] (setting [9]); over 65.3 µM in assay [3]. Moreover, the Emax in assay [1] was 15.2%; in assay [2], 0.39%. Besides, the activation at 26.1 µM in assay [1] (setting [6]) stood at 2.38 ± 0.5%; in assay [1] (setting [7]), 6.3%. Further, the “CyCEP ACT DCSRUN2 Averaged Max % Response” value in assay [3] is 0.13%.

With `CC(C)c1ccc(Nc2nccn3c(-c4ccoc4)cnc23)cc1` [SR-01000376943-1], the EC50 was 12.7 µM in assay [1] (setting [4]); over 65.3 µM in assay [1] (setting [5]); 13.9 µM in assay [2] (setting [8]); over 65.3 µM in assay [2] (setting [9]); over 65.3 µM in assay [3]. For the same compound, the Emax in assay [1] is 6.99%; in assay [2], -0.189%. For the same compound, the activation at 26.1 µM in assay [1] (setting [6]) worked out at 2.06 ± 0.33%; in assay [1] (setting [7]), 2.3%. For the same compound, the “CyCEP ACT DCSRUN2 Averaged Max % Response” value in assay [3] was found to be 1.39%.

The record behind these values is patent US20210047278A1, “E3 UBIQUITIN LIGASE AGONISTS, PHARMACEUTICAL COMPOSITIONS INCLUDING THE E3 UBIQUITIN LIGASE AGONISTS, RELATED METHODS OF USE” (FRED HUTCHINSON CANCER RESEARCH CENTER, priority 2018, published 2021).
